# Measurements reported in paper PMC6737615, “Complete oxidation of hydroxymethylfurfural to furandicarboxylic acid by aryl-alcohol oxidase” (Biotechnology for Biofuels, 2019).
# Legend:
# [1] = molecular target: T1, aryl-alcohol oxidase (AAO) (Pleurotus eryngii, UniProt O94219); experiment: biochemical
# T1 sequence (O94219 28-593): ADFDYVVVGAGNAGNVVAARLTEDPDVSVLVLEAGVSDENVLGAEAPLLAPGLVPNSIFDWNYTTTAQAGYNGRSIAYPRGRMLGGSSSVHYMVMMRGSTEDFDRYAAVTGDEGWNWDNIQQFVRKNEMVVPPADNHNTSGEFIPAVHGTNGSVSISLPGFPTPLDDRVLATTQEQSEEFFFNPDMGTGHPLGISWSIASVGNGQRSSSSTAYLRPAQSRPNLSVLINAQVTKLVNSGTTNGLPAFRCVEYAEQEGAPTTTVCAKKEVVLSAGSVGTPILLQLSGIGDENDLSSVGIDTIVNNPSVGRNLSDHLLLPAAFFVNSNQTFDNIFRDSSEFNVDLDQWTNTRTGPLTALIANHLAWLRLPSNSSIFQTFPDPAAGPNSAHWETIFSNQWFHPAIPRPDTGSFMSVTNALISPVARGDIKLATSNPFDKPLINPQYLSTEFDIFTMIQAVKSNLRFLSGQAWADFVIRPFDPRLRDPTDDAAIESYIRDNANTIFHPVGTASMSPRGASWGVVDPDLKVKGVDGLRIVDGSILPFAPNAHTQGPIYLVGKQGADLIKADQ
# [2] = molecular target: aryl-alcohol oxidase (AAO) (Pleurotus eryngii, UniProt O94219, F528H); experiment: conversion to FDCA by purified variant with catalase, HPLC; type: biochemical
# Text: (§1) conversion to FDCA by purified variant with catalase, HPLC on aryl-alcohol oxidase (AAO) | production of FDCA from HMF by native AAO, and its F501H, F397Y, and I500M/F501 W variants
# [3] = molecular target: aryl-alcohol oxidase (AAO) (Pleurotus eryngii, UniProt O94219, I527M/F528W); experiment: as above; type: biochemical
# Text: as §1
# [4] = molecular target: aryl-alcohol oxidase (AAO) (Pleurotus eryngii, UniProt O94219, F424Y); experiment: as above; type: biochemical
# Text: as §1
# [5] = molecular target: T1, aryl-alcohol oxidase (AAO); experiment: HPLC and 1H-NMR of oxidation by purified AAO; type: biochemical; set-up: mature AAO cDNA (GenBank AF064069) expressed in E. coli
# [6] = molecular target: T1, aryl-alcohol oxidase (AAO); experiment: turnover at saturating aldehyde, spectrophotometric acid formation; type: biochemical; set-up: mature AAO cDNA (GenBank AF064069) expressed in E. coli
# Experimental: turnover at saturating aldehyde, spectrophotometric acid formation on aryl-alcohol oxidase (AAO) | Turnovers for aldehyde oxidation were calculated at saturating concentration of p-anisaldehyde
smiles,measurement,setting,value
OO [H2O2],IC50,[1],~158 µM
O=Cc1ccc(CO)o1 [HMF],% conversion,[2],97.9 % conversion
same,% conversion,[3],52.8 % conversion
same,% conversion,[4],75.7 % conversion
same,HPLC and 1H-NMR of oxidation by purified AAO,[5],2.54 h⁻¹
COc1ccc(C=O)cc1 [p-anisaldehyde],p-Anisaldehyde / kcat,[6],0.122 s⁻¹
